Experimental data from US20050130134A1, “Means and methods for monitoring non-nucleoside reverse transcriptase inhibitor antiretroviral therapy and guiding therapeutic decisions in the treatment HIV-AIDS” (ViroLogic, Inc., priority 2000, published 2005).
Entries after “also recorded” stand apart in the source; their conditions may differ.

Key:
[1] = tested on: RTV-B clone 1 (RT A98G, G190S); test: Phenotypic susceptibility assay, RTV-B clone 1 (patient B); format: cell-based, HIV-1; conditions: >1 loss, <1 increased susceptibility
Procedure: (§1) Resistance tests were carried out with resistance test vectors using two host cell types. Resistance test vector viral particles were produced by a first host cell (the resistance test vector host cell) that was prepared by transfecting a packaging host cell with the resistance test vector and the packaging expression vector. The resistance test vector viral particles were then used to infect a second host cell (the target host cell) in which the expression of the indicator gene is measured.
(§2) The resistance test vectors containing a functional luciferase gene cassette were constructed and host cells were transfected with the resistance test vector DNA. The resistant test vectors contained patient-derived reverse transcriptase and protease sequences that were either susceptible or resistant to the antiretroviral agents, such as nucleoside reverse transcriptase inhibitors, non-nucleoside reverse transcriptase inhibitors and protease inhibitors. The resistance test vector viral particles produced by transfecting the resistance test vector DNA into host cells, either in the presence or absence of protease inhibitors, were used to infect target host cells grown either in the absence of NRTI or NNRTI or in the presence of increasing concentrations of the drug. […] The IC50 values were determined by plotting percent drug inhibition vs. log10 drug concentration.
(§3) Host cells were seeded in 10-cm-diameter dishes and were transfected several days after plating with resistance test vector plasmid DNA and the envelope expression vector. […] HIV capsid protein (p24) levels in the harvested cell culture media were determined by an EIA method as described by the manufacturer (SIAC; Frederick, Md.). […] The inhibitory effect of the drug was determined using the following equation: % luciferase inhibition=1-(RLUluc[drug]÷RLUluc)×100 where RLUluc [drug] is the relative light unit of luciferase activity in infected cells in the presence of drug and RLUluc is the Relative Light Unit of luciferase activity in infected cells in the absence of drug. […]

[2] = tested on: RTV-1060 patient virus (RT K101E, G190S); test: Phenotypic susceptibility assay, RTV-1060 (patient 98-1060); format: cell-based, HIV-1; conditions: >1 decreased susceptibility
Procedure: as §1
The resistance test vectors containing a functional luciferase gene cassette were constructed and host cells were transfected with the resistance test vector DNA. The resistant test vectors contained patient-derived reverse transcriptase and protease sequences that were either susceptible or resistant to the antiretroviral agents, such as nucleoside reverse transcriptase inhibitors, non-nucleoside reverse transcriptase inhibitors and protease inhibitors. […] The IC50 values were determined by plotting percent drug inhibition vs. log10 drug concentration.
as §3
An IC50 was determined for the resistance test vector pool for each drug tested.

[3] = tested on: RTV-1033 patient virus (RT V106A, V189L, F227L); test: Phenotypic susceptibility assay, RTV-1033 (patient 98-1033); format: cell-based, HIV-1
Procedure: (§4) Transfections were performed using a calcium-phosphate precipitation procedure. […] Cell lysates were assayed for luciferase activity (FIG. 3). […] The drug inhibition curves are shown in (FIG. 3).

[4] = tested on: HIV-1 reverse transcriptase P225H (P225H-RTV); test: Phenotypic susceptibility assay, site directed mutant P225H-RTV; format: cell-based; conditions: P225H alone versus wild type control RTV
Procedure: as §4
Resistance test vectors were constructed containing the P225H mutation alone and in combination with other known drug resistance mutations (K103N, Y181C) known to modulate the HIV susceptibility to NNRTIs. […] (Sakar G and Sommar S S (1994) Biotechniques 8(4), 404-407). […] The P225H mutation was also introduced into a RTV containing additional mutations at K103N, Y181C or both (K103N+Y181C).

[5] = tested on: HIV-1 reverse transcriptase P236L plus K103N, Y181C or both; test: Phenotypic susceptibility assay, P236L with K103N, Y181C or K103N+Y181C; format: cell-based; conditions: P236L added to K103N, Y181C or K103N+Y181C versus corresponding RTV lacking P236L
Procedure: as §4
Resistance test vectors were constructed containing the P236L mutation alone and in combination with other known drug resistance mutations (K103N, Y181C) that are known to modulate the susceptibility of HIV-1 to NNRTIs. […] The P236L mutation was also introduced into a RTV containing mutations at K103N, Y181C or both (K103N+Y181C).

[6] = tested on: HIV-1 reverse transcriptase Y181I (Y181I-RTV); test: Phenotypic susceptibility assay, site directed mutant Y181I-RTV; format: cell-based; conditions: >1 loss of susceptibility
Procedure: as §1, §2, §3

[7] = tested on: HIV-1 reverse transcriptase E138A + Y188L (E138A-Y188L-RTV); test: Phenotypic susceptibility assay, site directed mutant E138A-Y188L-RTV; format: cell-based; conditions: >1 loss of susceptibility
Procedure: as §1, §2, §3

[8] = tested on: HIV-1 reverse transcriptase Y181C + A98G (Y181C-A98G-RTV); test: Phenotypic susceptibility assay, site directed mutant Y181C-A98G-RTV; format: cell-based; conditions: >1 loss of susceptibility
Procedure: as §1, §2, §3

[9] = tested on: HIV-1 reverse transcriptase K101E (K101E-RTV); test: Phenotypic susceptibility assay, site directed mutant K101E-RTV; format: cell-based
Procedure: as §1
The resistance test vectors containing a functional luciferase gene cassette were constructed and host cells were transfected with the resistance test vector DNA. The resistant test vectors contained patient-derived reverse transcriptase and protease sequences that were either susceptible or resistant to the antiretroviral agents, such as nucleoside reverse transcriptase inhibitors, non-nucleoside reverse transcriptase inhibitors and protease inhibitors. The resistance test vector viral particles produced by transfecting the resistance test vector DNA into host cells, either in the presence or absence of protease inhibitors, were used to infect target host cells grown either in the absence of NRTI or NNRTI or in the presence of increasing concentrations of the drug. The amount of luciferase activity produced in infected target host cells in the presence of drug was compared to the amount of luciferase produced in infected target host cells in the absence of drug. Drug resistance was measured as the amount of drug required to inhibit by 50% the luciferase activity detected in the absence of drug (inhibitory concentration 50%, IC50). The IC50 values were determined by plotting percent drug inhibition vs. log10 drug concentration.
Host cells were seeded in 10-cm-diameter dishes and were transfected several days after plating with resistance test vector plasmid DNA and the envelope expression vector. Transfections were performed using a calcium-phosphate precipitation procedure. The cell culture media containing the DNA precipitate was replaced with fresh medium, from one to 24 hours, after transfection. Cell culture media containing resistance test vector viral particles was harvested one to four days after transfection and was passed through a […] filter before being stored at −80° C. HIV capsid protein (p24) levels in the harvested cell culture media were determined by an EIA method as described by the manufacturer (SIAC; Frederick, Md.). Before infection, target cells (293 and 293/T) were plated in cell culture media. Control infections were performed using cell culture media from mock transfections (no DNA) or transfections containing the resistance test vector plasmid DNA without the envelope expression plasmid. One to three or more days after infection the media was removed and cell lysis buffer (Promega) was added to each well. […] The inhibitory effect of the drug was determined using the following equation: % luciferase inhibition=1-(RLUluc[drug]÷RLUluc)×100 where RLUluc [drug] is the relative light unit of luciferase activity in infected cells in the presence of drug and RLUluc is the Relative Light Unit of luciferase activity in infected cells in the absence of drug. IC50 values were obtained from the sigmoidal curves that were generated from the data by plotting the percent inhibition of luciferase activity vs. the log10 drug concentration. […]

[10] = tested on: HIV-1 reverse transcriptase K101E + G190A (K101E-G190A-RTV); test: Phenotypic susceptibility assay, site directed mutant K101E-G190A-RTV; format: cell-based; conditions: >1 loss of susceptibility
Procedure: as §1, §2, §3

[11] = tested on: HIV-1 reverse transcriptase K103N + G190A (K103N-G190A-RTV); test: Phenotypic susceptibility assay, site directed mutant K103N-G190A-RTV; format: cell-based; conditions: K103N-G190-RTV (K103N + G190A); >1 loss of susceptibility
Procedure: as §1, §2, §3

[12] = tested on: HIV-1 reverse transcriptase V189L (V189L-RTV); test: Phenotypic susceptibility assay, site directed mutant V189L-RTV; format: cell-based; conditions: >1 loss of susceptibility
Procedure: as §1, §2, §3

[13] = tested on: HIV-1 reverse transcriptase V106A + V189L (V106A-V189L-RTV); test: Phenotypic susceptibility assay, site directed mutant V106A-V189L-RTV; format: cell-based; conditions: >1 loss of susceptibility
Procedure: as §1, §2, §3

[14] = tested on: HIV-1 reverse transcriptase Y181C + F227L (Y181C-F227L-RTV); test: Phenotypic susceptibility assay, site directed mutant Y181C-F227L-RTV; format: cell-based; conditions: >1 loss, <1 increased susceptibility
Procedure: as §1, §2, §3

[15] = tested on: HIV-1 reverse transcriptase L100I (L100I-RTV); test: Phenotypic susceptibility assay, site directed mutant L100I-RTV; format: cell-based; conditions: >1 loss of susceptibility
Procedure: as §1, §2, §3

[16] = K101E-RTV, >1 loss of susceptibility
[17] = second pair of values printed in the K101E-RTV sentence of b280

Compound	fold change in susceptibility [1] [fold]	fold change in susceptibility [2]	decrease in susceptibility [3]	change in susceptibility [4]	change in susceptibility [5]	fold change in susceptibility compared to wild type control RTV [6] [fold]	fold change in susceptibility compared to wild type control RTV [7]	fold change in susceptibility compared to wild type control RTV [8]	fold change in susceptibility compared to wild type control RTV [9, 16] [fold]	fold change in susceptibility compared to wild type control RTV [10]	fold change in susceptibility compared to wild type control RTV [11]	fold change in susceptibility compared to wild type control RTV [12] [fold]	fold change in susceptibility compared to wild type control RTV [13] [fold]	fold change in susceptibility compared to wild type control RTV [14] [fold]	fold change in susceptibility compared to wild type control RTV [15] [fold]	fold change in susceptibility compared to wild type control RTV [9, 17] [fold]
CC(C)Nc1cccnc1N1CCN(C(=O)c2cc3cc(NS(C)(=O)=O)ccc3[nH]2)CC1 [delavirdine]	0.55	1.5 fold	30 fold	more susceptible; also recorded: increase; also recorded: increases susceptibility	less susceptible (more resistant); also recorded: additional reduction; also recorded: severe resistance	20	75 fold	240 fold	5	2 fold	40 fold	1.8	3	0.89	30	–
O=C1Nc2ccc(Cl)cc2[C@@](C#CC2CC2)(C(F)(F)F)O1 [efavirenz]	250	900 fold	200 fold	little or no change	restores a significant portion of the loss of susceptibility	1.4	88 fold	7 fold	5	120 fold	215 fold	1.3	1	0.99	10	30
Cc1ccnc2c1NC(=O)c1cccnc1N2C1CC1 [nevirapine]	640	greater than 800 fold	greater than 800 fold	No significant change; also recorded: little or no change	did not significantly alter; also recorded: little or no additional reduction; also recorded: no effect	740	greater than 800 fold	greater than 800 fold	12	greater than 800 fold	greater than 800 fold	1.3	50	285	3	55
